Target: T1, CaSR 7-transmembrane domain allosteric binding site (Homo sapiens, UniProt P41180)
T1 sequence (P41180 20-1078): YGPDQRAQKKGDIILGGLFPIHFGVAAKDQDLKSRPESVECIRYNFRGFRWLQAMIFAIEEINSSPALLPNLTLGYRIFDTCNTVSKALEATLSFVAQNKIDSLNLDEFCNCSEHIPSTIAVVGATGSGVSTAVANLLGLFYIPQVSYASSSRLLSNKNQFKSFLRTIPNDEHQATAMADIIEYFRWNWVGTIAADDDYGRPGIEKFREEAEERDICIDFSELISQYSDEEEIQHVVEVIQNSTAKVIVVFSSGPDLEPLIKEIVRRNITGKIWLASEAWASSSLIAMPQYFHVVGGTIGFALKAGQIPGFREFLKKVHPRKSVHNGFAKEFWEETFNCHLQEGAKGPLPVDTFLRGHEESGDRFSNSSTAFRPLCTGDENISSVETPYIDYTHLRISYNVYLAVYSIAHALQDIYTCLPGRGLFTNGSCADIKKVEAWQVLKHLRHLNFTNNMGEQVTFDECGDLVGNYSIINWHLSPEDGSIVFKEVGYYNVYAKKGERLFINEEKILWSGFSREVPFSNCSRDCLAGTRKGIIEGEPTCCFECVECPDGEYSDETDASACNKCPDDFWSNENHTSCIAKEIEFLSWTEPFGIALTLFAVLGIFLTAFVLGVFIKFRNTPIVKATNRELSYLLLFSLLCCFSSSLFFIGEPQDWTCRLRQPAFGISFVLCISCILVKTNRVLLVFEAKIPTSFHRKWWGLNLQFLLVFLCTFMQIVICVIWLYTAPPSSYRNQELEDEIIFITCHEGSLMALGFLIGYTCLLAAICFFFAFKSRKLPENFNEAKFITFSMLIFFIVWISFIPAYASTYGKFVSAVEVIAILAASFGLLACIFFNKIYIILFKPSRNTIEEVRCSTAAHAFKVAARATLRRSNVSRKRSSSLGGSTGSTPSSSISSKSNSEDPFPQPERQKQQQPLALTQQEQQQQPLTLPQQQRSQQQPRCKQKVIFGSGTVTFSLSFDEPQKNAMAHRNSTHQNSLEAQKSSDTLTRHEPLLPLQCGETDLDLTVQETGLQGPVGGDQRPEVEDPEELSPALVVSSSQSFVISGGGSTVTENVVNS
Assay: [3H]evocalcet radioligand displacement
Method: For the seven different nanobodies with potencies in the 10 to 600 nM range, further characterization of their recognition site on the CaSR antigen was performed, since the identification of the nanobody binding-sites at the CaSR is key to understand their interaction and mode-of-action at a molecular and structural level, and will further aid in the development of second-generation nanobodies with enhanced pharmacological parameters. Nanobodies belonging to each family of the five different nanobody families are expected to interact with distinct regions of the CaSR.

CC(C)(Cc1ccc2ccccc2c1)NC[C@@H](O)COc1cccc(Cl)c1C#N [NPS 2143]
Displacement of [3H]evocalcet binding: did displace
